Source: PubChem BioAssay (NCI)
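Cultured in 96-well plates, cells were exposed to test compound for 48 hours across five concentrations. Here, GI50 denotes the concentration required for 50% inhibition of growth. The concentration for full growth arrest is given as TGI.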

What was measured:
Experiment in all cases: DTP human tumour cell line panel, 48 h
[1] = tested on: 786-0 renal
[2] = tested on: A498 renal
[3] = tested on: A549 NSCLC
[4] = tested on: ACHN renal
[5] = tested on: BT-549 breast
[6] = tested on: CAKI-1 renal
[7] = tested on: CCRF-CEM leukemia
[8] = tested on: COLO 205 colon
[9] = tested on: DU-145 prostate
[10] = tested on: EKVX NSCLC
[11] = tested on: HCC-2998 colon
[12] = tested on: HCT-116 colon
[13] = tested on: HCT-15 colon
[14] = tested on: HL-60(TB) leukemia
[15] = tested on: HOP-62 NSCLC
[16] = tested on: HOP-92 NSCLC
[17] = tested on: HS 578T breast
[18] = tested on: HT29 colon
[19] = tested on: IGROV1 ovarian
[20] = tested on: K-562 leukemia
[21] = tested on: KM12 colon
[22] = tested on: LOX IMVI melanoma
[23] = tested on: M14 melanoma
[24] = tested on: MALME-3M melanoma
[25] = tested on: MCF7 breast
[26] = tested on: MDA-MB-231 breast
[27] = tested on: MDA-MB-435
[28] = tested on: MDA-MB-468 breast
[29] = tested on: MOLT-4 leukemia
[30] = tested on: NCI-H226 lung
[31] = tested on: NCI-H23 lung
[32] = tested on: NCI-H460 lung
[33] = tested on: NCI-H522 lung
[34] = tested on: NCI/ADR-RES ovarian
[35] = tested on: OVCAR-3 ovarian
[36] = tested on: OVCAR-4 ovarian
[37] = tested on: OVCAR-5 ovarian
[38] = tested on: OVCAR-8 ovarian
[39] = tested on: PC-3 prostate
[40] = tested on: RPMI-8226 leukemia
[41] = tested on: RXF 393 renal
[42] = tested on: SF-268 CNS
[43] = tested on: SF-295 CNS
[44] = tested on: SF-539 CNS
[45] = tested on: SK-MEL-2 melanoma
[46] = tested on: SK-MEL-28 melanoma
[47] = tested on: SK-MEL-5 melanoma
[48] = tested on: SK-OV-3 ovarian
[49] = tested on: SN12C renal
[50] = tested on: SNB-19 CNS
[51] = tested on: SR leukemia
[52] = tested on: SW-620 colon
[53] = tested on: T-47D breast
[54] = tested on: TK-10 renal
[55] = tested on: U251 CNS
[56] = tested on: UACC-257 melanoma
[57] = tested on: UACC-62 melanoma
[58] = tested on: UO-31 renal

Compound `COc1ccc(C(=O)/C=C/c2cccc(Cl)c2)cc1S(N)(=O)=O` has a GI50 [1] of 1570 nM, a TGI [1] of 3.49 µM and a GI50 [2] of 16.3 µM. For the same compound, the TGI [2] was 30.5 µM, the GI50 [3] was 2500 nM and the TGI [3] was 10.2 µM. For the same compound, the GI50 [4] was 1750 nM, the TGI [4] was 3.23 µM and the GI50 [5] was 1650 nM. The TGI [5] was 4.18 µM, the GI50 [6] was 2400 nM and the TGI [6] was 9.07 µM. The GI50 [7] was 3.11 µM, the TGI [7] was 8.69 µM and the GI50 [8] was 1810 nM. It also gave a TGI [8] of 3.41 µM, a GI50 [9] of 3.52 µM and a TGI [9] of 12.2 µM. It also gave a GI50 [10] of 4.16 µM, a TGI [10] of 16.7 µM and a GI50 [11] of 1600 nM. The TGI [11] was 3.06 µM, the GI50 [12] was 1210 nM and the TGI [12] was 2520 nM. It also gave a GI50 [13] of 1140 nM, a TGI [13] of 2590 nM and a GI50 [14] of 1900 nM. For the same compound, the TGI [14] was 5.72 µM, the GI50 [15] was 2200 nM and the TGI [15] was 6.43 µM. The GI50 [16] was 2280 nM, the TGI [16] was 18.6 µM and the GI50 [17] was 10.7 µM. The TGI [17] was 50.9 µM, the GI50 [18] was 1700 nM and the TGI [18] was 3.4 µM. The GI50 [19] was 2480 nM, the TGI [19] was 9.06 µM and the GI50 [20] was 2130 nM. For the same compound, the TGI [20] was over 100 µM, the GI50 [21] was 1610 nM and the TGI [21] was 3.75 µM. It also gave a GI50 [22] of 1300 nM, a TGI [22] of 2570 nM and a GI50 [23] of 2130 nM. It also gave a TGI [23] of 6.93 µM, a GI50 [24] of 3.56 µM and a TGI [24] of 15.1 µM. For the same compound, the GI50 [25] was 1970 nM, the TGI [25] was 6.99 µM and the GI50 [26] was 2260 nM. For the same compound, the TGI [26] was 5.9 µM, the GI50 [27] was 3.2 µM and the TGI [27] was 12.1 µM. It also gave a GI50 [28] of 1410 nM, a TGI [28] of 2930 nM and a GI50 [29] of 2380 nM. For the same compound, the TGI [29] was 6.15 µM, the GI50 [30] was 2830 nM and the TGI [30] was 11.9 µM. The GI50 [31] was 1780 nM, the TGI [31] was 3.5 µM and the GI50 [32] was 3.34 µM. It also gave a TGI [32] of 11.2 µM, a GI50 [33] of 1630 nM and a TGI [33] of 3.22 µM. It also gave a GI50 [34] of 2290 nM, a TGI [34] of 6.48 µM and a GI50 [35] of 1550 nM. It also gave a TGI [35] of 3.39 µM, a GI50 [36] of 3.58 µM and a TGI [36] of 14.3 µM. For the same compound, the GI50 [37] was 1870 nM, the TGI [37] was 4.76 µM and the GI50 [38] was 2810 nM. For the same compound, the TGI [38] was 11.7 µM, the GI50 [39] was 2230 nM and the TGI [39] was 6.18 µM. It also gave a GI50 [40] of 2280 nM, a TGI [40] of 6.67 µM and a GI50 [41] of 1550 nM. It also gave a TGI [41] of 3.08 µM, a GI50 [42] of 3.27 µM and a TGI [42] of 13 µM. For the same compound, the GI50 [43] was 2240 nM, the TGI [43] was 7.94 µM and the GI50 [44] was 1750 nM. For the same compound, the TGI [44] was 3.78 µM, the GI50 [45] was 12.9 µM and the TGI [45] was 26.2 µM. It also gave a GI50 [46] of 2780 nM, a TGI [46] of 9.4 µM and a GI50 [47] of 3.18 µM. The TGI [47] was 12.6 µM, the GI50 [48] was 6.24 µM and the TGI [48] was 19.1 µM. It also gave a GI50 [49] of 1560 nM, a TGI [49] of 3.64 µM and a GI50 [50] of 3.13 µM. It also gave a TGI [50] of 12.4 µM, a GI50 [51] of 848 nM and a TGI [51] of 4.9 µM. The GI50 [52] was 1680 nM, the TGI [52] was 3.53 µM and the GI50 [53] was 2140 nM. It also gave a TGI [53] of 6.68 µM, a GI50 [54] of 2490 nM and a TGI [54] of 10.5 µM. For the same compound, the GI50 [55] was 1360 nM, the TGI [55] was 2690 nM and the GI50 [56] was 5.53 µM. It also gave a TGI [56] of 18.9 µM, a GI50 [57] of 1980 nM and a TGI [57] of 5.51 µM. It also gave a GI50 [58] of 1290 nM and a TGI [58] of 2730 nM.
